Source: patent US11485720B2, “Anti-infective agents” (University of Dundee, priority 2016, dated 2022)

What was measured:
[1] = tested on: Cryptosporidium parvum; assay: In vitro Crytosporidium inhibition assay; assay type: cell-based; conditions: Cryptosporidium parvum; read-out: Cryptosporidium parvum pEC50 (converted)
Source text: Assay Method for Measurement of In Vitro Inhibition of Crytosporidium.
These experiments were run in accordance with the method of Besssoff et. al. Antimicrob. Agents Chemother. 2013, 57:1804-1814. Results from these experiments are provided in the Experimental Results hereinafter.

[2] = tested on: Plasmodium falciparum strain 3D7; assay: Plasmodium falciparum 3D7 in vitro growth inhibition (SYBRgreen I); assay type: cell-based; conditions: Plasmodium falciparum, 3D7; read-out: pEC50 for Pf 3D7 (converted)
Procedure: Parasite Cultures and Cytotoxicity Assay Methodology for Plasmodium falciparum. […] Growth inhibition of the Plasmodium falciparum cultures was quantified in a 10-point dose response curve with a 1 in 3 dilution series from a top assay concentration of 50 μM. This 384 well plate based fluorescence assay utilises the binding of SYBRgreen I (Thermo Fisher Scientific/Invitrogen cat. no. S7585) to double stranded DNA, which greatly increases the fluorescent signal at 528 nm after excitation at 485 nm. Mefloquine was used as a drug control to monitor the quality of the assay (Z′=0.6 to 0.8, where Z′ is a measure of the discrimination between the positive and negative controls on a screen plate). Dose-response curves were determined from a minimum of 3 independent experiments. Compound bioactivity was expressed as EC50, the effective concentration of compound causing 50% parasite death.

[3] = target: T1, Mycobacterium tuberculosis lysyl t-RNA synthetase (Mtb KRS) (Mycobacterium tuberculosis, UniProt P9WFU9); assay: Mtb KRS inhibition biochemical assay (BioMol Green); conditions: read-out: Mtb KRS pIC50 (converted)
T1 construct: MtbKRS1-; made in house; host or cells: E. coli BL21 (DE3)

[4] = tested on: Hep G2; assay: Hep G2 in-vitro cytotoxicity assay; assay type: cell-based; conditions: Homo sapiens, HepG2, read-out: Hs HEPG2 pEC50 (converted)
Source text: In-vitro cytotoxicity studies can be carried out using Hep G2 (Human hepatocyte carcinoma, HPACC cat. no. 85011430) used as indicators for general mammalian cell toxicity. Hep G2 in-vitro cytotoxicity can be assessed using the assay procedure as described in “Use of a human-derived liver cell line for the detection of cytoprotective, antigenotoxic and cogenotoxic agents”, Volker Mersch-Sundermann, Siegfried Knasmüller, Xin-jiang Wu, Firouz Darroudi, Fekadu Kassie. J. Tox 198 (2004) 329-340) the contents of which are incorporated herein by reference.

[5] = target: T2, Plasmodium falciparum lysyl t-RNA synthetase (Pf-KRS1) (Plasmodium falciparum, UniProt Q8IDJ8); assay: Pf-KRS1 inhibition biochemical assay (Kinase-Glo, ATP depletion); conditions: read-out: Pf-KRS pIC50 (converted)
T2 construct: Pf KRS1-; made in house; host or cells: E. coli BL21 (DE3)
Source text: Plasmodium falciparum Lysine tRNA Synthetase (KRS1) Biochemical Assay Methodology.
Lysine tRNA Synthetase (KRS1) is an enzyme which catalyses the esterification of L-Lysine to the appropriate transfer ribonucleic acid (tRNA), to form an aminoacyl-tRNA. Once the tRNA is charged, a ribosome transfers the amino acid from the tRNA onto a growing peptide, according to the genetic code.
The substrates of this reaction are L-lysine, and adenosine triphosphate (ATP), the overall reaction is: amino acid+tRNA+ATP→aminoacyl-tRNA+AMP+PPi
In this overall reaction AMP is adenosine monophosphate and PP; is inorganic pyrophosphate. The reaction progression in a biochemical assay can be tracked by the depletion of one of the substrates, in the case of this invention, ATP. This was done using the proprietary assay kit, Kinase Glo® Assay which is a luminescent kinase assay platform suitable for monitoring kinase activities using up to 10 μm ATP which is commercially available from the Promega Corporation of Madison, Wis., USA. The Kinase-Glo® Assay was performed in a single well of a multiwell plate by adding a volume of Kinase-Glo® Reagent equal to the volume of a completed kinase reaction and measuring luminescence. The resulting luminescent signal is correlated with the amount of ATP present and is inversely correlated with the amount of kinase activity. As such by use of this assay methodology a reduction of the luminescent signal is relative to the reduction in ATP as the reaction progresses. A compound which inhibits the action of KRS will show no drop in the luminescent signal from assay controls.
Assays were performed using both Plasmodium falciparum and human KRS to assess any selectivity of various test compounds.
Test compounds were solubilized in DMSO at a top concentration of 10 mM and serially diluted 1 in 3 to achieve a range of final assay concentrations of 50 μM to 2.5 nM in 10 μl reaction volume.
KRS was diluted to a working concentration of 75 nM in assay buffer (25 mM HEPES, 25 mM KOH, 10 mM MgCl2.6H2O, 50 mM KCl), and the following ‘Master Mix’ prepared in assay buffer: 0.1 mg/ml BSA, 250 μM DTT, 200 μM Spermine, 0.05% NP-40, ATP 3 μM for Pf KRS1 (4 μM for Hs KRS1), 0.4 mg/ml tRNA from Yeast, 60 μM L-Lysine, 0.5 U/ml Pyrophosphatase.
Plates were incubated at room temperature for 5 h for Pf KRS (2.5 hrs for HsKRS), then the assay stopped by the addition of 10 μl of The Kinase-Glo® Reagent Assay was performed in a single well of a multiwell plate by adding a volume of Kinase-Glo® Reagent which is commercially available from the Promega Corporation of Madison, Wis., USA. The plates were incubated in the dark for a further 15 mins before being read for luminescence on a BMG PHERAstar® FSX plate reader which is a multi-mode reader for use in high-throughput screening available from BMG Labtech if Cary, N.C., USA. Data were analysed by calculating the percentage inhibition compared to the maximum and minimum assay controls. Concentration effect curves were fitted using nonlinear regression within ActivityBase and IC50 values were determined using standard protocols.

[6] = tested on: Leishmania donovani; assay: Ld-cAxAm-TP-pMIC assay; assay type: cell-based; conditions: read-out: Ld-cAxAm-TP-pMIC pEC50 (converted)
[7] = tested on: Leishmania donovani; assay: Leishmania donovani intramacrophage inhibition assay (Ld-INMAC); assay type: cell-based; conditions: intramacrophage amastigotes in THP-1 cells, read-out: Ld-INMAC pEC50 (converted)
Procedure: Assay Method for Measurement of In Vitro Inhibition of Leishmania donovani.
These experiments were run in accordance with the method as detailed herein and results from these experiments are provided in the Experimental Results hereinafter.
The intramacrophage Leishmania assay was performed as described in de Rycker et al (Antimicrob Agents Chemother, 2013 July; 57(7):2913-22. doi: 10.1128/AAC.02398-12). Briefly, 1 μl of compound was pre-dispensed into 384 well sterile intermediary plates. For single point screening, amphotericin B was added to all wells of column 24 as a positive control (final concentration 2 μM) and DMSO to column 23. For potency determinations, ten-point, one in three dilution curves were created with the highest concentration being 50 μM and on each plate a control curve of amphotericin B was included. Controls were as follows: columns 11 and 12: DMSO, columns 23 and 24: amphotericin B (final concentration 2 μM). To the intermediary plates, 100 μl of THP-1 media was added and plates were shaken for >5 min to ensure complete mixing. THP-1 cells (8,000 per well, 50 μl) were plated into black clear-bottom 384 well plates (Corning) in presence of 10 nM PMA. After 20 min at room temperature, the plates were incubated at 37° C. under 5% CO2 in a humidified incubator for 75 h. The cells were then washed with […] sterile phosphate buffered saline (PBS) supplemented with 1 mM CaCl2, 0.5 mM MgCl2, 0.1% (w/v) bovine serum albumin (PBS-A) and amastigotes were added to all wells at a multiplicity of infection of 5 (40,000 amastigotes per well). After 40 min at room temperature, plates were returned to the incubator. Amastigotes were incubated in the presence of macrophages for 16 h. Any remaining extracellular amastigotes were subsequently removed with an overflow wash of 1 ml PBS-A per well (wash buffer is being aspirated from the top of the well as it is being dispensed) followed by addition of 25 μl of the compound pre-dilutions using a Matrix Hydra DT pipetting station. The final dilution of each compound was 200-fold. Plates were incubated for 72 h and then washed (250 μl PBS-A) and fixed (4% (v/v) formaldehyde-PBS, 30 min, room temperature). After fixation, the wells were washed with 250 μl PBS, stained (10 μg/ml DAPI, 0.4 μg ml-1 HCS Cellmask Deep Red in PBS+0.1% (v/v) Triton X-100, 30 min, room temperature) and washed with 250 μl PBS. Finally, PBS+0.05% (v/v) thimerosal was added to the wells, the plates were sealed and imaged on a high-content microscope (GE IN Cell 1000 or GE IN Cell 2000) using a 10× objective. Image analysis was carried out with GE IN Cell Analyzer 1000 Workstation using the “Multi Target Analysis” module. […]

[8] = tested on: THP-1 cells; assay: THP-1 host cell count in intramacrophage Leishmania assay; assay type: cell-based; conditions: Homo sapiens, host cell toxicity, read-out: THP1 pEC50 (converted)
Procedure: The intramacrophage Leishmania assay was performed as described in de Rycker et al (Antimicrob Agents Chemother, 2013 July; 57(7):2913-22. doi: 10.1128/AAC.02398-12). Briefly, 1 μl of compound was pre-dispensed into 384 well sterile intermediary plates. For single point screening, amphotericin B was added to all wells of column 24 as a positive control (final concentration 2 μM) and DMSO to column 23. For potency determinations, ten-point, one in three dilution curves were created with the highest concentration being 50 μM and on each plate a control curve of amphotericin B was included. Controls were as follows: columns 11 and 12: DMSO, columns 23 and 24: amphotericin B (final concentration 2 μM). To the intermediary plates, 100 μl of THP-1 media was added and plates were shaken for >5 min to ensure complete mixing. THP-1 cells (8,000 per well, 50 μl) were plated into black clear-bottom 384 well plates (Corning) in presence of 10 nM PMA. After 20 min at room temperature, the plates were incubated at 37° C. under 5% CO2 in a humidified incubator for 75 h. The cells were then washed with […] sterile phosphate buffered saline (PBS) supplemented with 1 mM CaCl2, 0.5 mM MgCl2, 0.1% (w/v) bovine serum albumin (PBS-A) and amastigotes were added to all wells at a multiplicity of infection of 5 (40,000 amastigotes per well). After 40 min at room temperature, plates were returned to the incubator. Amastigotes were incubated in the presence of macrophages for 16 h. Any remaining extracellular amastigotes were subsequently removed with an overflow wash of 1 ml PBS-A per well (wash buffer is being aspirated from the top of the well as it is being dispensed) followed by addition of 25 μl of the compound pre-dilutions using a Matrix Hydra DT pipetting station. The final dilution of each compound was 200-fold. Plates were incubated for 72 h and then washed (250 μl PBS-A) and fixed (4% (v/v) formaldehyde-PBS, 30 min, room temperature). After fixation, the wells were washed with 250 μl PBS, stained (10 μg/ml DAPI, 0.4 μg ml-1 HCS Cellmask Deep Red in PBS+0.1% (v/v) Triton X-100, 30 min, room temperature) and washed with 250 μl PBS. Finally, PBS+0.05% (v/v) thimerosal was added to the wells, the plates were sealed and imaged on a high-content microscope (GE IN Cell 1000 or GE IN Cell 2000) using a 10× objective. Image analysis was carried out with GE IN Cell Analyzer 1000 Workstation using the “Multi Target Analysis” module. Settings for segmentation were as follows: nuclei: minimum area: 142.384 μm^2, sensitivity: 81, method: top-hat; cells: characteristic area: 2500 μm^2, sensitivity: 60, method: multiscale top-hat; organelles (amastigotes): granule size 1-3, 3 scales, sensitivity: 90, detection in entire cell. […]

[9] = tested on: Trypanosoma cruzi; assay: Trypanosoma cruzi intracellular imaging assay; assay type: cell-based; conditions: read-out: Trypanosoma cruzi pEC50 (converted)
Source text: Assay Method for Measurement of In Vitro Inhibition of Trypanosoma cruzi. […] These experiments were run in accordance with the method of Pena et. al., Scientific Reports 5, Article number: 8771 (2015). Results from these experiments are provided in the Experimental Results hereinafter.

T2 sequence (Q8IDJ8 entry or part of it, looked up, natural form): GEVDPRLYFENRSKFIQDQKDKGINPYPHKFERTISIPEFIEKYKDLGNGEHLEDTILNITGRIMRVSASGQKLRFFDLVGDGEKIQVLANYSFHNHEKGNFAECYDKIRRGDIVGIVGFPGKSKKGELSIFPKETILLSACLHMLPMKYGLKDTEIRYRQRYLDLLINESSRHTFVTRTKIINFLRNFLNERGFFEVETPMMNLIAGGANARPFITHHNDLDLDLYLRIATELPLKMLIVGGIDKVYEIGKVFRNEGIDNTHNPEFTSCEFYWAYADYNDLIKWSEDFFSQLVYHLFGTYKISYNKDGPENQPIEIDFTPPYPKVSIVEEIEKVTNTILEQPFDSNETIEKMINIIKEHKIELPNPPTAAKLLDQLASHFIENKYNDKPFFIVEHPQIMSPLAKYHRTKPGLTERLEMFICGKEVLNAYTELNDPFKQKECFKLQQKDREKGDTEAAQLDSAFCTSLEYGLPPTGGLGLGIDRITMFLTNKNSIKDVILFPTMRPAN
T1 sequence (P9WFU9 whole entry): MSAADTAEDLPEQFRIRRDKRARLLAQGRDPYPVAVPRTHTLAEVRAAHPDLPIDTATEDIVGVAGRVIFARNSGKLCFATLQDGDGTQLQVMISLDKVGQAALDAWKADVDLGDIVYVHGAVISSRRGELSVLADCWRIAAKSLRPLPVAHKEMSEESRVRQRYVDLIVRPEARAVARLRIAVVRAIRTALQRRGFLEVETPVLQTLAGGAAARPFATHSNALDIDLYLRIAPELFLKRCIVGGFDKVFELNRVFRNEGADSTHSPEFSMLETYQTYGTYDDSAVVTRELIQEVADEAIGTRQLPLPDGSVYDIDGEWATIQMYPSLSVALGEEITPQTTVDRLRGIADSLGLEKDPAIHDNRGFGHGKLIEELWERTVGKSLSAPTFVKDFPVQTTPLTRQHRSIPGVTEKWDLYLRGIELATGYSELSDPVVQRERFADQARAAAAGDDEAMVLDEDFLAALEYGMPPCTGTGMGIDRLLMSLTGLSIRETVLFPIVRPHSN

Row | SMILES | EC50 [1] [nM] | EC50 [2] [nM] | IC50 [3] [nM] | EC50 [4] [nM] | IC50 [5] [nM] | EC50 [6] [nM] | EC50 [7] [nM] | EC50 [8] [nM] | EC50 [9] [nM]
1 | O=C(NC1CCCC(F)(F)C1)c1cc(=O)c2cc(F)cc(O)c2o1 (stereo not shown) [Example 76C, N-(3,3-Difluorocyclohexyl)-6-fluoro-8-hydroxy-4-oxo-4H-chromene-2-carboxamide] | 2000 | 1000 | 15800 | 50100 | 316 |  |  |  | 
2 | O=C(NCC1CCC1)c1cc(=O)c2cc(F)cc(O)c2o1 [Example 76E, N-(cyclobutylmethyl)-6-fluoro-8-hydroxy-4-oxo-4H-chromene-2-carboxamide] |  | 794 | 31600 |  | 251 |  |  |  | 
3 | CCC(C)CNC(=O)c1cc(=O)c2cc(F)cc(O)c2o1 (stereo not shown) [Example 76H, 6-fluoro-8-hydroxy-N-(2-methylbutyl)-4-oxo-chromene-2-carboxamide] |  | 251 | 50100 |  | 251 |  |  |  | 
4 | O=C(NCC1(O)CCCCC1)c1cc(=O)c2cc(O)cc(F)c2o1 [Example 81, 8-fluoro-6-hydroxy-N-((1-hydroxycyclohexyl)methyl)-4-oxo-4H-chromene-2-carboxamide] | 126 |  |  | 15800 | 200 | 6310 | 20000 | > 50100 | 
5 | Nc1cccc2c(=O)cc(C(=O)NCC3CCCCC3)oc12 [Example 83, 8-Amino-N-(cyclohexylmethyl)-4-oxo-4H-chromene-2-carboxamide] |  | 20 |  | 7940 | 50.1 |  |  |  | 158
6 | Nc1cc(F)cc2c(=O)cc(C(=O)NCC3CCC(F)(F)C3)oc12 (stereo not shown) [Example 95, 8-amino-N-[(3,3-difluorocyclopentyl)methyl]-6-fluoro-4-oxo-4H-chromene-2-carboxamide] |  | 50.1 |  |  |  |  |  |  | 63.1
7 | Nc1cc(F)cc2c(=O)cc(C(=O)NCC3CCCCC3)oc12 [Example 99, 8-amino-N-(cyclohexylmethyl)-6-fluoro-4-oxo-chromene-2-carboxamide] | 15.8 | 10 |  | 5010 | 50.1 |  |  |  | 25.1
